In US4731451A, “N-((2-oxo-3(2H)benzothiazolyl)methyl)-2-chloroacetanilides” (Monsanto Company, priority 1980, dated 1988):

Assays:
Format in all cases: in vivo
[1] = test system: Panicum; assay: Pre-emergent herbicidal activity (Table III)
Method: (§1) The pre-emergence tests are conducted as follows:
(§2) A good grade of top soil is placed in aluminum pans and compacted to a depth of three-eighths to one-half inch from the top of the pan. On the top of the soil is placed a predetermined number of seeds or vegetative propagules of various plant species. The soil required to level fill the pans after seeding or adding vegetative propagules is weighed into a pan. A known amount of the active ingredient applied in a solvent or as a wettable powder suspension and the soil are thoroughly mixed, and used as a cover layer for prepared pans. After treatment, the pans are moved into a greenhouse bench where they are watered from below as needed to give adequate moisture for germination and growth.
(§3) Approximately 2-3 weeks after seeding and treating, the plants are observed and the results recorded. The herbicidal rating is obtained by means of fixed scale based on the percent injury of each plant species. The ratings are defined as follows: […]
(§4) The compounds were further tested by utilizing the above procedure on the following plant species: […]

[2] = test system: Soybean; assay: Pre-emergent herbicidal activity (Table III)
Method: as §1, §2, §3, §4

[3] = test system: Crabgrass; assay: Pre-emergent herbicidal activity (Table III)
Method: as §1, §2, §3, §4

[4] = test system: Sugarbeet; assay: Pre-emergent herbicidal activity (Table III)
Method: as §1, §2, §3, §4

[5] = test system: Morningglory; assay: Pre-emergent herbicidal activity (Table III)
Method: as §1, §2, §3, §4

[6] = test system: Velvetleaf; assay: Pre-emergent herbicidal activity (Table III)
Method: as §1, §2, §3, §4

[7] = test system: Downy Brome; assay: Pre-emergent herbicidal activity (Table III)
Method: as §1, §2, §3, §4

[8] = test system: Hemp Sesbania; assay: Pre-emergent herbicidal activity (Table III)
Method: as §1, §2, §3, §4

[9] = test system: Wild Buckwheat; assay: Pre-emergent herbicidal activity (Table III)
Method: as §1, §2, §3, §4

[10] = test system: Rice; assay: Pre-emergent herbicidal activity (Table III)
Method: as §1, §2, §3, §4

[11] = test system: Sorghum; assay: Pre-emergent herbicidal activity (Table III)
Method: as §1, §2, §3, §4

[12] = test system: Barnyardgrass; assay: Pre-emergent herbicidal activity (Table III)
Method: as §1, §2, §3, §4

[13] = test system: Lambsquarters; assay: Pre-emergent herbicidal activity (Table III)
Method: as §1, §2, §3, §4

[14] = test system: Wheat; assay: Pre-emergent herbicidal activity (Table III)
Method: as §1, §2, §3, §4

[15] = test system: Cocklebur; assay: Pre-emergent herbicidal activity (Table III)
Method: as §1, §2, §3, §4

[16] = test system: Smartweed; assay: Pre-emergent herbicidal activity (Table III)
Method: as §1, §2, §3, §4

[17] = test system: Yellow Nutsedge; assay: Pre-emergent herbicidal activity (Table II); details: 2-3 weeks
Method: as §1, §2, §3
(§5) The plant species utilized in one set of tests, the data for which are shown in Table II, are identified by letter in accordance with the following legend: […]

[18] = test system: Morningglory; assay: Pre-emergent herbicidal activity (Table II); details: 2-3 weeks
Method: as §1, §2, §3, §5

[19] = test system: Canada Thistle; assay: Pre-emergent herbicidal activity (Table II); details: 2-3 weeks
Method: as §1, §2, §3, §5

[20] = test system: Velvetleaf; assay: Pre-emergent herbicidal activity (Table II); details: 2-3 weeks
Method: as §1, §2, §3, §5

[21] = test system: Downy Brome; assay: Pre-emergent herbicidal activity (Table II); details: 2-3 weeks
Method: as §1, §2, §3, §5

[22] = test system: Barnyardgrass; assay: Pre-emergent herbicidal activity (Table II); details: 2-3 weeks
Method: as §1, §2, §3, §5

[23] = test system: Lambsquarters; assay: Pre-emergent herbicidal activity (Table II); details: 2-3 weeks
Method: as §1, §2, §3, §5

[24] = test system: Quackgrass; assay: Pre-emergent herbicidal activity (Table II); details: 2-3 weeks
Method: as §1, §2, §3, §5

[25] = test system: Cocklebur; assay: Pre-emergent herbicidal activity (Table II); details: 2-3 weeks
Method: as §1, §2, §3, §5

[26] = test system: Johnsongrass; assay: Pre-emergent herbicidal activity (Table II); details: 2-3 weeks
Method: as §1, §2, §3, §5

[27] = test system: Smartweed; assay: Pre-emergent herbicidal activity (Table II); details: 2-3 weeks
Method: as §1, §2, §3, §5
Also: ranges in brackets are in %.

`CC1=C(N(Cn2c(=O)sc3ccc(Cl)cc32)C(=O)CCl)C(C)CCC1` (stereo not shown) [Example 6, N--[(5-chloro-2-oxo-3(2H)--benzothiazolyl)methyl]-N--(2,6-dimethyl-1-cyclohexen-1-yl)-2-chloroacetamide] was tested, and the Herbicidal rating ([1]; 1.12 kg/ha) was 0 (0-24), the Herbicidal rating ([1]; 5.6 kg/ha) was 0 (0-24) and the Herbicidal rating ([2]; 1.12 kg/ha) was 0 (0-24). The Herbicidal rating ([2]; 5.6 kg/ha) was 0 (0-24), the Herbicidal rating ([3]; 1.12 kg/ha) was 2 (50-74) and the Herbicidal rating ([3]; 5.6 kg/ha) was 3 (75-100). For the same compound, the Herbicidal rating ([4]; 1.12 kg/ha) was 1 (25-49), the Herbicidal rating ([4]; 5.6 kg/ha) was 1 (25-49) and the Herbicidal rating ([5]; 1.12 kg/ha) was 0 (0-24). The Herbicidal rating ([5]; 5.6 kg/ha) was 0 (0-24), the Herbicidal rating ([6]; 1.12 kg/ha) was 0 (0-24) and the Herbicidal rating ([6]; 5.6 kg/ha) was 0 (0-24). For the same compound, the Herbicidal rating ([7]; 1.12 kg/ha) was 0 (0-24), the Herbicidal rating ([7]; 5.6 kg/ha) was 0 (0-24) and the Herbicidal rating ([8]; 1.12 kg/ha) was 3 (75-100). For the same compound, the Herbicidal rating ([8]; 5.6 kg/ha) was 3 (75-100), the Herbicidal rating ([9]; 1.12 kg/ha) was 0 (0-24) and the Herbicidal rating ([9]; 5.6 kg/ha) was 0 (0-24). The Herbicidal rating ([10]; 1.12 kg/ha) was 1 (25-49), the Herbicidal rating ([10]; 5.6 kg/ha) was 0 (0-24) and the Herbicidal rating ([11]; 1.12 kg/ha) was 0 (0-24). The Herbicidal rating ([11]; 5.6 kg/ha) was 0 (0-24), the Herbicidal rating ([12]; 1.12 kg/ha) was 0 (0-24) and the Herbicidal rating ([12]; 5.6 kg/ha) was 1 (25-49). For the same compound, the Herbicidal rating ([13]; 1.12 kg/ha) was 3 (75-100), the Herbicidal rating ([13]; 5.6 kg/ha) was 1 (25-49) and the Herbicidal rating ([14]; 1.12 kg/ha) was 0 (0-24). For the same compound, the Herbicidal rating ([14]; 5.6 kg/ha) was 0 (0-24), the Herbicidal rating ([15]; 1.12 kg/ha) was 0 (0-24) and the Herbicidal rating ([15]; 5.6 kg/ha) was 0 (0-24). The Herbicidal rating ([16]; 1.12 kg/ha) was 2 (50-74), the Herbicidal rating ([16]; 5.6 kg/ha) was 1 (25-49) and the Herbicidal rating ([17]; 5.6 kg/ha) was 0 (0-24). The Herbicidal rating ([17]; 11.2 kg/ha) was 0 (0-24), the Herbicidal rating ([18]; 5.6 kg/ha) was 0 (0-24) and the Herbicidal rating ([18]; 11.2 kg/ha) was 0 (0-24). For the same compound, the Herbicidal rating ([19]; 5.6 kg/ha) was 0 (0-24), the Herbicidal rating ([19]; 11.2 kg/ha) was 1 (25-49) and the Herbicidal rating ([20]; 5.6 kg/ha) was 0 (0-24). For the same compound, the Herbicidal rating ([20]; 11.2 kg/ha) was 0 (0-24), the Herbicidal rating ([21]; 5.6 kg/ha) was 0 (0-24) and the Herbicidal rating ([21]; 11.2 kg/ha) was 0 (0-24). For the same compound, the Herbicidal rating ([22]; 5.6 kg/ha) was 1 (25-49), the Herbicidal rating ([22]; 11.2 kg/ha) was 3 (75-100) and the Herbicidal rating ([23]; 5.6 kg/ha) was 0 (0-24). For the same compound, the Herbicidal rating ([23]; 11.2 kg/ha) was 3 (75-100), the Herbicidal rating ([24]; 5.6 kg/ha) was 0 (0-24) and the Herbicidal rating ([24]; 11.2 kg/ha) was 1 (25-49). For the same compound, the Herbicidal rating ([25]; 5.6 kg/ha) was 0 (0-24), the Herbicidal rating ([25]; 11.2 kg/ha) was 0 (0-24) and the Herbicidal rating ([26]; 5.6 kg/ha) was 0 (0-24). The Herbicidal rating ([26]; 11.2 kg/ha) was 0 (0-24), the Herbicidal rating ([27]; 5.6 kg/ha) was 0 (0-24) and the Herbicidal rating ([27]; 11.2 kg/ha) was 0 (0-24).

In the case of `CC1=C(N(Cn2c(=O)sc3ccccc32)C(=O)CCl)C(C)CCC1` (stereo not shown) [Example 9, N--[(2-oxo-3(2H)--benzothiazolyl)methyl]-N--(2,6-dimethyl-1-cyclohexen-1-yl)-2-chloroamide], the Herbicidal rating ([1]; 0.26 kg/ha) was 0 (0-24), the Herbicidal rating ([1]; 1.12 kg/ha) was 0 (0-24) and the Herbicidal rating ([1]; 5.6 kg/ha) was 3 (75-100). For the same compound, the Herbicidal rating ([2]; 0.26 kg/ha) was 0 (0-24), the Herbicidal rating ([2]; 1.12 kg/ha) was 0 (0-24) and the Herbicidal rating ([2]; 5.6 kg/ha) was 0 (0-24). The Herbicidal rating ([3]; 0.26 kg/ha) was 1 (25-49), the Herbicidal rating ([3]; 1.12 kg/ha) was 2 (50-74) and the Herbicidal rating ([3]; 5.6 kg/ha) was 3 (75-100). For the same compound, the Herbicidal rating ([4]; 0.26 kg/ha) was 0 (0-24), the Herbicidal rating ([4]; 1.12 kg/ha) was 0 (0-24) and the Herbicidal rating ([4]; 5.6 kg/ha) was 1 (25-49). The Herbicidal rating ([5]; 1.12 kg/ha) was 0 (0-24), the Herbicidal rating ([5]; 5.6 kg/ha) was 0 (0-24) and the Herbicidal rating ([6]; 0.26 kg/ha) was 0 (0-24). For the same compound, the Herbicidal rating ([6]; 1.12 kg/ha) was 0 (0-24), the Herbicidal rating ([6]; 5.6 kg/ha) was 0 (0-24) and the Herbicidal rating ([7]; 0.26 kg/ha) was 0 (0-24). The Herbicidal rating ([7]; 1.12 kg/ha) was 0 (0-24), the Herbicidal rating ([7]; 5.6 kg/ha) was 2 (50-74) and the Herbicidal rating ([8]; 1.12 kg/ha) was 0 (0-24). For the same compound, the Herbicidal rating ([8]; 5.6 kg/ha) was 0 (0-24), the Herbicidal rating ([9]; 0.26 kg/ha) was 0 (0-24) and the Herbicidal rating ([9]; 1.12 kg/ha) was 0 (0-24). For the same compound, the Herbicidal rating ([9]; 5.6 kg/ha) was 0 (0-24), the Herbicidal rating ([10]; 0.26 kg/ha) was 0 (0-24) and the Herbicidal rating ([10]; 1.12 kg/ha) was 2 (50-74). The Herbicidal rating ([10]; 5.6 kg/ha) was 2 (50-74), the Herbicidal rating ([11]; 0.26 kg/ha) was 0 (0-24) and the Herbicidal rating ([11]; 1.12 kg/ha) was 0 (0-24). The Herbicidal rating ([11]; 5.6 kg/ha) was 2 (50-74), the Herbicidal rating ([12]; 0.26 kg/ha) was 2 (50-74) and the Herbicidal rating ([12]; 1.12 kg/ha) was 3 (75-100). For the same compound, the Herbicidal rating ([12]; 5.6 kg/ha) was 3 (75-100), the Herbicidal rating ([13]; 0.26 kg/ha) was 0 (0-24) and the Herbicidal rating ([13]; 1.12 kg/ha) was 0 (0-24). The Herbicidal rating ([13]; 5.6 kg/ha) was 1 (25-49), the Herbicidal rating ([14]; 0.26 kg/ha) was 0 (0-24) and the Herbicidal rating ([14]; 1.12 kg/ha) was 0 (0-24). For the same compound, the Herbicidal rating ([14]; 5.6 kg/ha) was 2 (50-74), the Herbicidal rating ([15]; 0.26 kg/ha) was 0 (0-24) and the Herbicidal rating ([15]; 1.12 kg/ha) was 0 (0-24). The Herbicidal rating ([16]; 0.26 kg/ha) was 0 (0-24), the Herbicidal rating ([16]; 1.12 kg/ha) was 0 (0-24) and the Herbicidal rating ([16]; 5.6 kg/ha) was 1 (25-49). The Herbicidal rating ([17]; 5.6 kg/ha) was 0 (0-24), the Herbicidal rating ([17]; 11.2 kg/ha) was 0 (0-24) and the Herbicidal rating ([18]; 5.6 kg/ha) was 0 (0-24). For the same compound, the Herbicidal rating ([18]; 11.2 kg/ha) was 0 (0-24), the Herbicidal rating ([19]; 5.6 kg/ha) was 0 (0-24) and the Herbicidal rating ([19]; 11.2 kg/ha) was 0 (0-24). For the same compound, the Herbicidal rating ([20]; 5.6 kg/ha) was 0 (0-24), the Herbicidal rating ([20]; 11.2 kg/ha) was 0 (0-24) and the Herbicidal rating ([21]; 5.6 kg/ha) was 0 (0-24). For the same compound, the Herbicidal rating ([21]; 11.2 kg/ha) was 2 (50-74), the Herbicidal rating ([22]; 5.6 kg/ha) was 3 (75-100) and the Herbicidal rating ([22]; 11.2 kg/ha) was 3 (75-100). For the same compound, the Herbicidal rating ([23]; 5.6 kg/ha) was 1 (25-49), the Herbicidal rating ([23]; 11.2 kg/ha) was 1 (25-49) and the Herbicidal rating ([24]; 5.6 kg/ha) was 0 (0-24). For the same compound, the Herbicidal rating ([24]; 11.2 kg/ha) was 1 (25-49), the Herbicidal rating ([25]; 5.6 kg/ha) was 0 (0-24) and the Herbicidal rating ([25]; 11.2 kg/ha) was 0 (0-24). For the same compound, the Herbicidal rating ([26]; 5.6 kg/ha) was 0 (0-24), the Herbicidal rating ([26]; 11.2 kg/ha) was 0 (0-24) and the Herbicidal rating ([27]; 5.6 kg/ha) was 0 (0-24). For the same compound, the Herbicidal rating ([27]; 11.2 kg/ha) was 3 (75-100).
